Tested on: Rat pancreatic islets
Experiment: Apoptosis (cytoplasmic nucleosomes, Cell Death Detection ELISA) in cultured rat pancreatic islets with or without cytokine cocktail
Type: cell-based
Procedure: Male Wistar rat islets (Elevage Janvier, Le Genest-St-Isle, France) were isolated using collagenase (Serva, Heidelberg, Germany) and cultured in RPMI at 11 mM glucose (Invitrogen, CA, USA) supplemented with 10% FCS (Fetal Calf Serum), 100 Units/ml penicillin, 100 μg/ml streptomycin and 100 μg/ml gentamycin in low-attachment 24-well plates (Corning, N.Y., USA). These islets were incubated with a cocktail of rat cytokines (TNF-alpha, IL-1beta and INF-gamma each at 2 ng/ml) for 24 hours (Brun T. et al., 2004 and 2007). […] Aliquots of the medium were used to measure insulin accumulated during the culture period using immune enzyme assay kits (Brunchwig, Basel, Switzerland). Furthermore, quantification of cytoplasmic nucleosomes, a direct indicator of apoptosis, was performed with the Cell Death Detection ELISA kit (Roche, Basel, Switzerland). Each condition was tested with 50 rat islets in duplicate and four independent experiments were performed. The results are provided as mean+/−sem and statistical analyses were performed using one-way ANOVA with Bonferroni and Dunnett post-hoc tests.
The conditions without cytokines allowed the analysis of the specific effect of the compound on islets while the combination of the drug with cytokines allowed the study of the effect of Imeglimin on islets under an inflammatory stress. To measure cell death in islets, quantification of cytoplasmic nucleosomes in islet cells, a consequence of DNA fragmentation during apoptosis (Robertson et al., 2000), was performed. […] Furthermore, a negative control and a positive control were added to the conditions with and without cytokines to test the effectiveness of the protocol. […] The results of the quantification of cell death for each condition are presented on FIG. 1.

[1] = with cytokines (each 2 ng/ml, 24 hours), Exendin-4 at 10 nM
[2] = with cytokines (TNF-alpha, IL-1beta, INF-gamma each 2 ng/ml, 24 hours), compound at 100 μM
[3] = with cytokines (each 2 ng/ml, 24 hours), compound at 1 mM

Exendin-4 [reference compound] was tested, and the “drop in apoptosis vs cytokine-stressed islets” value [1] was 29%, the “drop in apoptosis vs untreated islets” value [1] was 20% and the “decrease in cell death (vs untreated islets)” value (without cytokines, Exendin-4 at 10 nM, 24 hours) was 16%.

CC1N=C(N)NC(N(C)C)=N1.Cl (single isomer, unassigned; (+)) [(+)-2-amino-3,6-dihydro-4-dimethylamino-6-methyl-1,3,5-triazine hydrochloride] was tested, and the “protection of the islets from the cytokine stress” value (both doses (100 μM and 1 mM), cytokines each 2 ng/ml, 24 hours) was “completely protected”, the “less apoptosis than cytokine-stressed islets” value [2] was 37% and the “less apoptosis than untreated islets” value [2] was 29%. The “protection: less apoptosis than cytokine-stressed islets” value [3] was 25%, the “protection: less apoptosis than untreated islets” value [3] was 16% and the “more potent than Exendin-4 (protective effect)” value (with cytokines, lower concentration tested (100 μM) vs Exendin-4 at 10 nM) was ~50%. The “level of protection relative to the Exendin-4 level” value (without cytokines, compound at 100 μM vs Exendin-4 at 10 nM) was “two thirds” and the “less apoptosis than untreated islets” value (without cytokines, compound at 100 μM, 24 hours) was 10%.

Reference: patent US20130131065A1, “TREATMENT OF TYPE 2 DIABETES” (priority 2010, published 2013)
